Assay results from the NIST ThermoML archive (doi:10.1016/j.jct.2015.09.022).

Experiment: xn = mol fraction of the nth substance listed
Conditions: 100.7 kPa, Liquid; for viscosity: Falling or rolling sphere viscometry; for speed of sound: Frequency=3 MHz, Sing-around technique in a fixed-path interferometer; for mass density: Vibrating tube method

CCCCN [1-butanamine] + CCCC[n+]1ccn(C)c1.O=S(=O)([N-]S(=O)(=O)C(F)(F)F)C(F)(F)F
Conditions	mass density [kg/m3]	speed of sound [m/s]	viscosity [mPa·s]
298.15 K, x2 = 0	733.33	1246.5	0.47
298.15 K, x2 = 0.0261	–	1234	–
298.15 K, x2 = 0.0486	–	1225.4	–
298.15 K, x2 = 0.0804	–	1216.5	–
298.15 K, x2 = 0.1026	916.12	1211.6	2.11
298.15 K, x2 = 0.2026	1042.14	1203.5	4.44
298.15 K, x2 = 0.3004	1134.03	1203.2	7.22
298.15 K, x2 = 0.4056	1209.89	1205.1	11.01
298.15 K, x2 = 0.5051	1266.69	1208	14.99
298.15 K, x2 = 0.6119	1316.23	1212	20.24
298.15 K, x2 = 0.7025	1351.49	1215.1	25.4
298.15 K, x2 = 0.8002	1383.95	1218.1	32.04
298.15 K, x2 = 0.9015	1412.83	1222.9	40.3
303.15 K, x2 = 0	728.5	1223.9	0.44
303.15 K, x2 = 0.0261	–	1212.2	–
303.15 K, x2 = 0.0486	–	1204.5	–
303.15 K, x2 = 0.0804	–	1196.3	–
303.15 K, x2 = 0.1026	911.59	1192.1	1.59
303.15 K, x2 = 0.2026	1037.64	1186.4	3.23
303.15 K, x2 = 0.3004	1129.36	1187.1	5.31
303.15 K, x2 = 0.4056	1205.12	1190	8.35
303.15 K, x2 = 0.5051	1262.02	1193.8	11.71
303.15 K, x2 = 0.6119	1311.69	1198.9	16.01
303.15 K, x2 = 0.7025	1346.8	1203	20.08
303.15 K, x2 = 0.8002	1379.23	1208	25.55
303.15 K, x2 = 0.9015	1408.07	1212.9	32.07
308.15 K, x2 = 0	723.67	1201.3	0.41
308.15 K, x2 = 0.0261	–	1190.3	–
308.15 K, x2 = 0.0486	–	1183.5	–
308.15 K, x2 = 0.0804	–	1177.2	–
308.15 K, x2 = 0.1026	907.02	1174.1	1.31
308.15 K, x2 = 0.2026	1033.16	1169	2.63
308.15 K, x2 = 0.3004	1124.87	1170.3	4.2
308.15 K, x2 = 0.4056	1200.55	1174.5	6.58
308.15 K, x2 = 0.5051	1257.23	1178.9	9.28
308.15 K, x2 = 0.6119	1306.91	1184.8	12.71
308.15 K, x2 = 0.7025	1342.12	1189.6	16.01
308.15 K, x2 = 0.8002	1374.49	1195.6	20.49
308.15 K, x2 = 0.9015	1403.3	1200.9	26.13
313.15 K, x2 = 0	718.66	1178.7	0.39
313.15 K, x2 = 0.0261	–	1169.5	–
313.15 K, x2 = 0.0486	–	1163.2	–
313.15 K, x2 = 0.0804	–	1157.5	–
313.15 K, x2 = 0.1026	902.44	1155	1.1
313.15 K, x2 = 0.2026	1028.65	1152.5	1.99
313.15 K, x2 = 0.3004	1120.14	1155.1	3.21
313.15 K, x2 = 0.4056	1195.66	1160	4.98
313.15 K, x2 = 0.5051	1252.53	1165.2	7.11
313.15 K, x2 = 0.6119	1302.05	1171.9	9.9
313.15 K, x2 = 0.7025	1337.26	1177.8	12.8
313.15 K, x2 = 0.8002	1369.77	1184.5	16.65
313.15 K, x2 = 0.9015	1398.51	1190.5	21.62
318.15 K, x2 = 0	714.1	1156.2	0.37
318.15 K, x2 = 0.0261	–	1148.2	–
318.15 K, x2 = 0.0486	–	1143.2	–
318.15 K, x2 = 0.0804	–	1138.2	–
318.15 K, x2 = 0.1026	898.17	1137.8	0.87
318.15 K, x2 = 0.2026	1024.27	1137.2	1.57
318.15 K, x2 = 0.3004	1115.68	1141.4	2.53
318.15 K, x2 = 0.4056	1191.05	1146.8	3.95
318.15 K, x2 = 0.5051	1247.99	1152.5	5.65
318.15 K, x2 = 0.6119	1297.45	1160	7.95
318.15 K, x2 = 0.7025	1332.6	1167	10.45
318.15 K, x2 = 0.8002	1364.99	1174.2	13.75
318.15 K, x2 = 0.9015	1393.75	1180.5	17.99
323.15 K, x2 = 0	709.21	1133.5	0.35
323.15 K, x2 = 0.0261	–	1126.2	–
323.15 K, x2 = 0.0486	–	1121.5	–
323.15 K, x2 = 0.0804	–	1117.8	–
323.15 K, x2 = 0.1026	893.96	1118.6	0.74
323.15 K, x2 = 0.2026	1019.8	1119	1.32
323.15 K, x2 = 0.3004	1110.93	1124.5	2.09
323.15 K, x2 = 0.4056	1186.44	1130.6	3.26
323.15 K, x2 = 0.5051	1243.22	1137.2	4.64
323.15 K, x2 = 0.6119	1292.55	1145.6	6.49
323.15 K, x2 = 0.7025	1327.75	1153	8.48
323.15 K, x2 = 0.8002	1360.33	1161.3	11.32
323.15 K, x2 = 0.9015	1389.17	1168.3	14.91

CCCC=O [butanal] + CCCC[n+]1ccn(C)c1.O=S(=O)([N-]S(=O)(=O)C(F)(F)F)C(F)(F)F
Conditions	mass density [kg/m3]	speed of sound [m/s]	viscosity [mPa·s]
298.15 K, x2 = 0	796.99	1193.8	0.43
298.15 K, x2 = 0.0222	–	1192	–
298.15 K, x2 = 0.0464	–	1190.7	–
298.15 K, x2 = 0.0748	–	1189.2	–
298.15 K, x2 = 0.1056	979.73	1187.5	1.53
298.15 K, x2 = 0.2135	1105.53	1191.7	3.32
298.15 K, x2 = 0.3088	1185.23	1196.2	5.62
298.15 K, x2 = 0.4153	1251.86	1200.5	8.98
298.15 K, x2 = 0.5025	1294.27	1204.2	12.42
298.15 K, x2 = 0.5987	1332.31	1208.6	16.22
298.15 K, x2 = 0.6852	1360.82	1213.2	20.37
298.15 K, x2 = 0.7729	1385.61	1217.5	25.55
298.15 K, x2 = 0.8852	1412.72	1223.9	34.29
303.15 K, x2 = 0	791.8	1172.7	0.4
303.15 K, x2 = 0.0222	–	1171.6	–
303.15 K, x2 = 0.0464	–	1170.9	–
303.15 K, x2 = 0.0748	–	1170	–
303.15 K, x2 = 0.1056	975.4	1169	1.24
303.15 K, x2 = 0.2135	1101.73	1173.6	2.62
303.15 K, x2 = 0.3088	1181.18	1179.9	4.29
303.15 K, x2 = 0.4153	1247.94	1185.4	6.76
303.15 K, x2 = 0.5025	1290.44	1189.5	9.23
303.15 K, x2 = 0.5987	1328.49	1195.7	12.08
303.15 K, x2 = 0.6852	1356.74	1200.6	15.05
303.15 K, x2 = 0.7729	1381.37	1206.6	19.07
303.15 K, x2 = 0.8852	1408.37	1213.6	26.85
308.15 K, x2 = 0	786.41	1151.6	0.39
308.15 K, x2 = 0.0222	–	1150.1	–
308.15 K, x2 = 0.0464	–	1149.4	–
308.15 K, x2 = 0.0748	–	1148.8	–
308.15 K, x2 = 0.1056	971.06	1149.6	0.98
308.15 K, x2 = 0.2135	1097.08	1154.8	1.98
308.15 K, x2 = 0.3088	1176.97	1161.6	3.18
308.15 K, x2 = 0.4153	1243.96	1168.7	4.87
308.15 K, x2 = 0.5025	1286.66	1174.3	6.66
308.15 K, x2 = 0.5987	1324.67	1180.5	8.73
308.15 K, x2 = 0.6852	1352.96	1186.4	10.93
308.15 K, x2 = 0.7729	1377.44	1193.6	14.71
308.15 K, x2 = 0.8852	1404.09	1201	21.85
313.15 K, x2 = 0	781.37	1130.6	0.36
313.15 K, x2 = 0.0222	–	1129.3	–
313.15 K, x2 = 0.0464	–	1128.5	–
313.15 K, x2 = 0.0748	–	1127.9	–
313.15 K, x2 = 0.1056	966.81	1129.2	0.8
313.15 K, x2 = 0.2135	1092.97	1136.5	1.53
313.15 K, x2 = 0.3088	1173.06	1144.7	2.39
313.15 K, x2 = 0.4153	1240.28	1152.6	3.69
313.15 K, x2 = 0.5025	1282.97	1159.6	5.13
313.15 K, x2 = 0.5987	1320.95	1166.8	6.82
313.15 K, x2 = 0.6852	1349.19	1174.2	8.86
313.15 K, x2 = 0.7729	1373.41	1181.8	11.8
313.15 K, x2 = 0.8852	1399.8	1189.6	17.93
318.15 K, x2 = 0	776.39	1109.6	0.35
318.15 K, x2 = 0.0222	–	1108.4	–
318.15 K, x2 = 0.0464	–	1107.7	–
318.15 K, x2 = 0.0748	–	1107	–
318.15 K, x2 = 0.1056	961.43	1109	0.69
318.15 K, x2 = 0.2135	1088.71	1118.4	1.23
318.15 K, x2 = 0.3088	1169.26	1128.2	1.96
318.15 K, x2 = 0.4153	1236.78	1137.7	2.96
318.15 K, x2 = 0.5025	1279.56	1145.2	4.06
318.15 K, x2 = 0.5987	1317.62	1153.1	5.62
318.15 K, x2 = 0.6852	1345.51	1162.1	7.72
318.15 K, x2 = 0.7729	1369.39	1170.1	10.43
318.15 K, x2 = 0.8852	1395.55	1179.3	15.49
323.15 K, x2 = 0	771.3	1088.8	0.32
323.15 K, x2 = 0.0222	–	1087.5	–
323.15 K, x2 = 0.0464	–	1086.7	–
323.15 K, x2 = 0.0748	–	1086.1	–
323.15 K, x2 = 0.1056	957.54	1087.8	0.56
323.15 K, x2 = 0.2135	1084.6	1099.2	0.94
323.15 K, x2 = 0.3088	1165.17	1110.2	1.43
323.15 K, x2 = 0.4153	1232.87	1120.3	2.24
323.15 K, x2 = 0.5025	1275.6	1128.5	3.07
323.15 K, x2 = 0.5987	1313.47	1138.5	4.43
323.15 K, x2 = 0.6852	1341.63	1147.2	6.21
323.15 K, x2 = 0.7729	1365.48	1156.5	8.42
323.15 K, x2 = 0.8852	1391.08	1166.2	12.99
